Data reported in patent US20240262806A1, “INHIBITORS OF NLRP3” (PTC THERAPEUTICS, INC., priority 2021, published 2024).

The compounds below were run on NLRP3 inflammasome (assay: IL-1β Secretion Assay (NLRP3-dependent IL-1β secretion in PMA-differentiated THP-1 cells, nigericin activation, HTRF)). Settings: Homo sapiens, THP-1, THP-1 cells, 100 ng/mL PMA 24 h, compound 20 h, 2.5 μM Nigericin 3 h; read-out: IC50 IL-1β Inhibition.
Assay type: cell-based
Summary of the method: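 IL-1β release, quantified by HTRF after nigericin activation of the NLRP3 inflammasome, was the read-out. A logistic fit of percent inhibition gave IC50.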
Work on Oc1cc(C(F)(F)F)ccc1-c1nnc(N[C@H]2CNCC[C@H]2F)c2cnccc12 [Compound I-301] yielded an IC50 of 1 to 10 nM. For CN1CCC(CNc2nnc(-c3ccc(C(F)(F)F)cc3O)c3ccncc23)CC1 [Compound I-302], the IC50 was 1 to 10 nM. OCCN1CCC(CNc2nnc(-c3ccc(C(F)(F)F)cc3O)c3ccncc23)CC1 [Compound I-303] showed an IC50 of 1 to 10 nM. Cc1cc(O)c(-c2nnc(N[C@@H]3CCCN(C)C3)c3ncccc23)c(F)c1 [Compound I-304] gave an IC50 of less than 1 nM. C[C@]1(O)C[C@@H](Nc2nnc(-c3ccc(C(F)(F)F)cc3O)c3ccncc23)C1 [Compound I-305] showed an IC50 of less than 1 nM. In the case of Oc1cc(C(F)(F)F)ccc1-c1nnc(N[C@H]2CNC[C@H](F)C2)c2cnccc12 [Compound I-306], the IC50 is reported as less than 1 nM. For CCc1ccc(-c2nnc(N[C@@H]3CCCN(C)C3)c3cnccc23)c(O)c1 [Compound I-307], the IC50 was less than 1 nM. Work on CO[C@H]1CCC[C@@H](Nc2nnc(-c3ccc(C(F)(F)F)cc3O)c3ccncc23)C1 [Compound I-308] yielded an IC50 of less than 1 nM. Work on Oc1cc(C(F)(F)F)ccc1-c1nnc(N[C@@H]2CCCOC2)c2cnccc12 [Compound I-309] yielded an IC50 of 1 to 10 nM. With Oc1cc(C(F)(F)F)ccc1-c1nnc(N[C@H]2CCCOC2)c2cnccc12 [Compound I-310] the IC50 was 1 to 10 nM. FC(F)Oc1cc(C(F)(F)F)ccc1-c1nnc(N[C@@H]2CCCNC2)c2cnccc12 [Compound I-311] showed an IC50 of 1 to 10 nM. Compound FC(F)Oc1cc(C(F)(F)F)ccc1-c1nnc(N[C@@H]2CCCN(C3CCC3)C2)c2cnccc12 [Compound I-312] has an IC50 of less than 1 nM. CN1CCC[C@@H](Nc2nnc(-c3ccc(C(F)(F)F)cc3O)c3ccoc23)C1 [Compound I-313, (R)-2-(7-((1-Methylpiperidin-3-yl)amino)furo[2,3-d]pyridazin-4-yl)-5-(trifluoromethyl)phenol] showed an IC50 of less than 1 nM. Work on CN1CCC[C@@H](Nc2nnc(-c3ccc(Cl)cc3O)c3c2CCC3)C1 [Compound I-314] yielded an IC50 of 1 to 10 nM. CN1CC[C@@H](F)[C@@H](Nc2nnc(-c3ccc(C(F)(F)F)cc3O)c3ccncc23)C1 [Compound I-315] showed an IC50 of less than 1 nM. For C[C@]1(O)C[C@H](Nc2nnc(-c3ccc(C(F)(F)F)cc3O)c3ccncc23)C1 [Compound I-316], the IC50 was 1 to 10 nM. OCCN1CCCC[C@@H](Nc2nnc(-c3ccc(C(F)(F)F)cc3O)c3ccncc23)C1 [Compound I-317] was tested, and the IC50 was 1 to 10 nM. Work on CCOC(=O)[C@@H]1CC[C@@H](Nc2nnc(-c3ccc(C(F)(F)F)cc3O)c3ccncc23)CN1C [Compound I-318, Ethyl (2S,5R)-5-((1-(2-hydroxy-4-(trifluoromethyl)phenyl)pyrido[3,4-d]pyridazin-4-yl)amino)-1-methylpiperidine-2-carboxylate] yielded an IC50 of less than 1 nM. CN1CCC[C@@H](Nc2nnc(-c3ccc(OC(F)(F)F)cc3C(F)F)c3ccncc23)C1 [Compound I-319] showed an IC50 of 1 to 10 nM. In the case of CN1CCC[C@@H](Nc2nnc(-c3cc(OC(F)(F)F)ccc3C(F)F)c3ccncc23)C1 [Compound I-320], the IC50 is reported as 1 to 10 nM. Work on Cc1ccn2c(N[C@@H]3CCCN(C)C3)nnc(-c3ccc(C(F)(F)F)cc3O)c12 [Compound I-321, (R)-2-(8-Methyl-4-((1-methylpiperidin-3-yl)amino)pyrrolo[1,2-d][1,2,4]triazin-1-yl)-5-(trifluoromethyl)phenol] yielded an IC50 of 10 to 100 nM. In the case of CN1CCC[C@@H](Nc2nnc(-c3ccc(C(F)(F)F)cc3OC(F)F)c3cccn23)C1 [Compound I-322, 1-[2-(Difluoromethoxy)-4-(trifluoromethyl)phenyl]-N-[(3R)-1-methyl-3-piperidyl]pyrrolo[1,2-d][1,2,4]triazin-4-amine], the IC50 is reported as less than 1 nM. FC(F)OCCN1CCC[C@@H](Nc2nnc(-c3ccc(C(F)(F)F)cc3OC(F)F)c3cccn23)C1 [Compound I-323, 1-[2-(difluoromethoxy)-4-(trifluoromethyl)phenyl]-N-[(3R)-1-[2-(difluoromethoxy)ethyl]-3-piperidyl]pyrrolo[1,2-d][1,2,4]triazin-4-amine] showed an IC50 of 1 to 10 nM.
